One experiment deals with sheep platelet PLA2. The experiment is described as follows: Micromolar Calcium-Dependent PLA2 Assay (sheep platelet cytosolic PLA2). The note with it: pH 7.2, 1 μM CaCl2, 1 μM substrate, 10 min at 37° C. It is filed as biochemical. The source says: (§1) Specifically, one micromolar calcium-dependent mammalian PLA2 assay was used, i.e., sheep platelet PLA2, and two millimolar calcium-dependent mammalian PLA2 assays were used, i.e., human synovial fluid PLA2 and porcine pancreatic PLA2. The PLA2 enzymes represent different groups of PLA2 enzymes. Myocardial PLA2, platelet PLA2 and secreted PLA2 enzymes (human synovial fluid PLA2 and porcine pancreatic PLA2) have very different calcium requirements, which may be typical of their respective classes.
Micromolar Calcium-Dependent PLA2 Assay
Homogeneous sheep platelet cytosolic PLA2 was prepared as described by Loeb, L. A., and Gross, R. W., J. Biol. Chem., 261, 10467-10470 (1986). The purified calcium-dependent platelet PLA2 was preincubated in 70 mM Tris-Cl (pH 7.2) containing 1 μM CaCl2 and test compound for 5 min. at 25° C. Catalysis was initiated by injection of 1 μM radiolabeled substrate (1-O-(Z)-(1'-hexadecenyl)-2-[9,10^-3 H]-oleoyl-3-phosphorylcholine). After a 10 min. incubation period at 37° C., reaction products were extracted with n-butanol, separated by thin layer chromatography, and quantified by scintillation spectrometry. PLA2 activity was compared in the presence and absence of test compound and the IC50 was determined.
See Zupan, L. A., et al, "Calcium is sufficient but not necessary for activation of sheep platelet cytosolic phospholipase A2 ", FEBS Letters, Vol. 284, No. 1, 27-30 (1991).

In experiment [1] the target is T1, human synovial fluid PLA2 (Homo sapiens, UniProt P14555).
T1 construct: Purified human synovial fluid PLA2; tissue R. C; Franson (Medical College of Virginia, Richmond, Va.); host or cells: human synovial fluid
T1 sequence (P14555 21-144): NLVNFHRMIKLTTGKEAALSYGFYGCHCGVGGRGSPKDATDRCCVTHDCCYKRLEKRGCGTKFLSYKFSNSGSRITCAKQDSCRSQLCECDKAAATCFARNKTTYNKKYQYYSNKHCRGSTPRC
The experiment is described as follows: Millimolar Calcium-Dependent PLA2 Assay (human synovial fluid PLA2, [14C]-oleate labeled E. coli substrate). It is filed as biochemical. As to conditions: pH 7.0, 5 mM CaCl2, 30 min at 37° C., ">>" = little or no inhibition at highest concentration used.
Description: as §1
(§2) Millimolar Calcium-Dependent PLA2 Assays
Purified human synovial fluid PLA2 (purified by the procedure of Fawzy, A. A. and Franson, R. C. Biophys. J. 49, 533a [1986]) was obtained from R. C. Franson (Medical College of Virginia, Richmond, Va.). PLA2 activity was measured by using [^14 C]-oleate labeled autoclaved E. coli as substrate as described by Franson, R. C., Patriarca, P., and Elsbach, P. J., Lipid Res. 15, 380-388 (1974). The assay was performed at 37° C. for 30 min. in a final volume of 100 μL 50 mM Hepes buffer (pH 7.0) containing 150 mM NaCl, 5 mM CaCl2, and E. coli cells (corresponding to 10 nmol phospholipid). The test compound or control vehicle was preincubated with PLA2 for 5 min., followed by adding E. coli to initiate the reaction. The reaction was terminated by adding 2 mL tetrahydrofuran. The reaction product, [^14 C]-oleic acid, was isolated using a 1 mL Bond Elute--NH2 column and counted by liquid scintillation spectrometry.

The next experiment relates to HL-60 cells. The experiment is described as follows: HL-60 Cell Assay for LTB4 and PGE2 Production (calcium ionophore A23187 induced). It is filed as cell-based. The note with it: Homo sapiens; for IC50: A23187 5×10^-6 M. As for the experimental part:
An additional whole cell assay was also performed. In this assay, HL-60 cells are induced with the calcium ionophore A23187 in the presence of varying amounts of inhibitor, and the amounts of the prostaglandin E2 (PGE2) and leukotriene B4 (LTB4) which form are measured. Calcium ionophore A23187 activates a calcium-dependent PLA2 which leads to the enhanced production of the arachidonic acid metabolites PGE2 and LTB4. The concentrations of inhibitor which decrease the production of PGE2 and LTB4 by 50% relative to controls are expressed as IC50 values.
HL-60 Cell Assay for LTB4 and PGE2 Production
HL-60 cells grown exponentially in culture were induced to differentiate into granulocytes by a four day incubation with 0.8% (v/v) N,N-dimethylformamide. Prior to assay, differentiated HL-60 cells were washed once with Hanks' balanced salt solution containing 0.35 mg/mL sodium bicarbonate and 10 mM Hepes, pH 7.3 (HBSS) and resuspended in HBSS at a 3×10^6 cells/mL concentration. DMSO or test compounds solubilized in DMSO were added at 1:100 dilution to 1.0 mL HL-60 cell suspensions (3×10^6 cells) and preincubated at 37° C. for 10 min. in a shaking water bath. After an additional 5 min. incubation with 5×10^-6 M calcium ionophore, A23187 (Calbiochem, LaJolla, Calif.), the cells were centrifuged at 12,800×6 for 15 seconds and the supernatant (0.8 mL) removed and stored at -20° C. for LTB4 and PGE2 quantitation by radioimmunoassay (kits obtained from Amersham, United Kingdom and NEN Research Products, N. Billerica, Mass.).

Experiment [2] relates to purified calcium-independent canine myocardial PLA2. The experiment is described as follows: Calcium-Independent PLA2 Assay (purified canine myocardial cytosolic PLA2, release of radiolabeled oleic acid). It is filed as biochemical. The note with it: pH 7.0, 6.4 mM EGTA, 1 μM substrate, 5 min at 37° C., read-out: IC50 Canine Heart PLA2. How it is done:
This assay consists of determining the amount of radiolabeled fatty acid which is liberated from the radiolabeled phospholipid substrate by purified calcium-independent canine myocardial PLA2 in the presence of varying concentrations of the inhibitor. The concentration of inhibitor which decreases the activity of the enzyme to 50% of the activity observed in the absence of that inhibitor is determined. This concentration is defined as the IC50.
Calcium-Independent PLA2 Assay
Purified canine myocardial cytosolic PLA2 was isolated from an ATP-agarose eluate as described by Wolf, R. A., and Gross, R. W., J. Biol. Chem., 260, 7295-7303 (1985). The calcium-independent myocardial PLA2 was incubated with selected concentrations (10^-10 to 10^-4 M) of test compound in 168 mM Tris-Cl, 6.4 mM EGTA (a calcium chelator) (pH 7.0) for 5 min. at 25° C. Appropriate controls were performed in the absence of test compound. Catalysis was initiated by injection of 1 μM radiolabeled substrate (1-O-(Z)-(1'-hexadecenyl)-2-[9,10^-3 H]-oleoyl-3-phosphorylcholine). After a 5 min. incubation at 37° C., reaction products were extracted with n-butanol, separated by thin layer chromatography, and quantified by scintillation spectrometry. PLA2 activity was compared in the presence and absence of test compound and the IC50 was determined.

The target in a further experiment is T2, porcine pancreatic PLA2 (Sus scrofa, UniProt P00592).
T2 construct: Purified porcine pancreatic PLA2 was obtained from Sigma; purchased Sigma (St. Louis, Mo.); host or cells: porcine pancreas
The experiment is described as follows: Millimolar Calcium-Dependent PLA2 Assay (porcine pancreatic PLA2, [14C]-oleate labeled E. coli substrate). It is filed as biochemical.
Description: as §1, §2
Purified porcine pancreatic PLA2 was obtained from Sigma (St. Louis, Mo.). PLA2 activity was measured by using [14C]-oleate labeled autoclaved E. coli as described by Franson, Patriarca and Elsbach (referenced above). The assay was performed at 37° C. for 5 min. in a final volume of 100 μL Tris-HCl buffer (100 mM, pH 8.0) containing 1 mM EDTA, 10 mM CaCl2, and E. coli (containing […] phospholipid). The test compound or control vehicle was preincubated with PLA2 for 5 min. followed by adding E. coli to initiate the reaction. The reaction was terminated by adding 2 mL tetrahydrofuran. The reaction product [^14 C]-oleic acid, was isolated using a 1 mL Bond Elute--NH2 column and counted by liquid scintillation spectrometry.

For another experiment, the system named is rat neonatal myocytes. As to conditions: rat neonatal myocytes; Chien et al 1985 (cited); cited from earlier work.
Where [3] appears, read: human synovial fluid, read-out: IC50 HSF PLA2.
[4] abbreviates: LTB4 production, ">>" = little or no inhibition at highest concentration used, read-out: IC50 HL-60 LTB4.
Where [5] appears, read: PGE2 production, ">" inhibition but not enough for IC50, ">>" little or no inhibition at highest concentration, read-out: IC50 HL-60 PGE2.
Where [6] appears, read: pH 8.0, 10 mM CaCl2, 5 min at 37° C., ">>" = little or no inhibition at highest concentration used, read-out: IC50 Porcine Pancreatic PLA2.
The mark [7] stands for this setting: IC50 HSF PLA2, human synovial fluid.

SMILES strings stand for the structures. Like-named read-outs stand apart in the source and are kept apart here.

T2 sequence (P00592 23-146): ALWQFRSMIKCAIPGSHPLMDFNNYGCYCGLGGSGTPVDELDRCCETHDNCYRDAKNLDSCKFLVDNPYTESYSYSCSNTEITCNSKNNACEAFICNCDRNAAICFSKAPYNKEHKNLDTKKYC

Regarding `CCCCCCCCCCCC#Cc1ccccc1/C=C(\C(=O)OCC)P(=O)(OCC)OCC` [Example 5, Ethyl 2-(diethoxyphosphinyl)-3-[2-(1-tridecynyl)phenyl]-2-E-propenoate], the IC50 (as a rule, the concentration that gives 50% inhibition) was 2400 nM in the experiment with sheep platelet PLA2; > 100000 nM in experiment [1] (setting [3]); 1300 nM with HL-60 cells (setting [4]); 2300 nM in the experiment on HL-60 cells (setting [5]); 340 nM in experiment [2]; > 100000 nM at porcine pancreatic PLA2 (setting [6]).
For the compound `O=C(O)CI` [iodoacetate], in the experiment with rat neonatal myocytes, the “levels of ATP, release of arachidonic acid and morphological alterations of the myocytes” value was “lowers the levels of ATP which results in the release of arachidonic acid and morphological alterations of the myocytes”.
On to `CCCCCCCCCCCC#Cc1ccccc1/C=C/P(=O)(OCC)OCC` [Example 13, Diethyl E-2-[2-(1-tridecynyl)phenyl]ethenylphosphonate], for which the 50% inhibitory concentration (IC50) in the experiment on sheep platelet PLA2 was 1100 nM; in experiment [2], 3000 nM.
`CCCCCCCCCCCC#Cc1ccccc1/C=C/P(=O)(O)O` [Example 14, 2-[2-(1-Tridecynyl)phenyl]ethenylphosphonic acid]: the figures for the IC50 (with sheep platelet PLA2; in experiment [2]) were 2900 nM and 4500 nM, respectively.
The like results for `CCCCCCCCC(=O)NCC#Cc1ccccc1C=C(P(=O)(OCC)OCC)P(=O)(OCC)OCC` [Example 18, Tetraethyl [2-[2-[3-[(1-oxononyl)amino]-1-propynyl]phenyl]ethenylidene]bisphosphonate] were, in that order, ~100000 nM and > 100000 nM.
Regarding `CCCCCCCCCCCC#Cc1cccc(C=C(P(=O)(O)O)P(=O)(O)O)c1` [Example 3, Disodium [2-[3-(1-tridecynyl)phenyl]ethenylidene]bisphosphonate], the figures for the IC50 (in the experiment on sheep platelet PLA2; in experiment [1] (setting [7]); in experiment [2]) were 3200 nM, 38000 nM and 360 nM, respectively.
For `CCCCCCCCCCCC#Cc1cccc(C=C(P(=O)(O)O)P(=O)(O)O)c1` [Example 2, [2-[3-(1-Tridecynyl)phenyl]ethenylidene]bisphosphonic acid], the 50% inhibitory concentration (IC50) in the experiment on sheep platelet PLA2 was 11000 nM; in experiment [1] (setting [3]) it was 31000 nM; with HL-60 cells (setting [4]), > 10000 nM; in the experiment with HL-60 cells (setting [5]), > 10000 nM; in experiment [2], 450 nM; at porcine pancreatic PLA2, > 100000 nM.
For `CCCCCCCCCCCC#Cc1ccccc1/C=C(\C(=O)OCC)P(=O)(O)O` [Example 6, Ethyl E-2-phosphono-3-[2-(1-tridecynyl)phenyl]propenoate], the half-inhibitory concentration (IC50) in experiment [1] (setting [3]) is 16000 nM; in the experiment with HL-60 cells (setting [4]), 4400 nM; in the experiment on HL-60 cells (setting [5]) it was 3500 nM; on porcine pancreatic PLA2 (setting [6]) it was 2500 nM.
Regarding `CCCCCCCCCCCC#Cc1ccccc1C=C(P(=O)(OCC)OCC)P(=O)(OCC)OCC` [Example 9, Tetraethyl [2-[2-(1-tridecynyl)phenyl]ethenylidene]bisphosphonate], the IC50 in the experiment with sheep platelet PLA2 was 160 nM; in experiment [1] (setting [3]) it was > 100000 nM; in the experiment on HL-60 cells (setting [4]) it was 2600 nM; with HL-60 cells (setting [5]), 4400 nM; in experiment [2], 1500 nM.
Consider `CCCCCCCCCCCC#Cc1cccc(P(=O)(OCC)OCC)c1` [Example 8, Diethyl [3-(1-tridecynyl)phenyl]phosphonate], for which the values for the IC50 (with sheep platelet PLA2; in experiment [2]) were 220 nM and 360 nM, respectively.
Take `CCCCCCCCCCCC#Cc1cccc(C=C(P(=O)(OCC)OCC)P(=O)(OCC)OCC)c1` [Example 1, Tetraethyl [2-[3-(1-tridecynyl)phenyl]ethenylidene]bisphosphonate]: the IC50 in the experiment on sheep platelet PLA2 was 180 nM; in experiment [1] (setting [3]) it was > 100000 nM; in the experiment with HL-60 cells (setting [4]), 1200 nM; in the experiment on HL-60 cells (setting [5]), 3000 nM; in experiment [2] it was 560 nM; on porcine pancreatic PLA2 (setting [6]), 100000 nM. Moreover, the activation at 100 µM at porcine pancreatic PLA2 (5 min, footnote a to the entry 100 (μM), + = activation) came to 40%.
With `CCCCCCCCCCCC#Cc1ccccc1C=C(P(=O)(O)O)P(=O)(O)O` [Example 10, [2-[2-(1-Tridecynyl)phenyl]ethenylldene]bisphosphonic acid], the concentration for half-maximal inhibition (IC50) in the experiment with sheep platelet PLA2 was 50000 nM; in experiment [1] (setting [3]), 50000 nM; in the experiment with HL-60 cells (setting [4]) it was 10000 nM; with HL-60 cells (setting [5]) it was > 10000 nM; in experiment [2], 710 nM; on porcine pancreatic PLA2, > 100000 nM. Also, in the experiment on HL-60 cells (footnote b to the entry 10 (μM), + = activation, LTB4), the activation at 10 µM came to 21%.
Take `CCCCCCCCCCCC#Cc1ccccc1C=C(P(=O)(O)O)P(=O)(O)O` [Example 11, Disodium [2-[2-(1-tridecynyl)phenyl]ethenylidene]bisphosphonate]: the half-inhibitory concentration (IC50) was determined as 2800 nM with sheep platelet PLA2, 25000 nM in experiment [1] (setting [7]) and 1900 nM in experiment [2].

Source of the values: patent US5648349A, “PLA2 inhibitors” (Monsanto Company, priority 1995, dated 1997).
